# Measurements: patent US20260317356A1, “SMALL MOLECULE MODULATORS OF OGG1” (AZKARRA THERAPEUTICS, INC., priority 2023, published 2026)
# Biological target: hOGG1 (Homo sapiens, UniProt O15527)
# Assay: Biochemical fluorescence assay to measure enzymatic activity of hOGG1 (OGG1/APEX IC50)
# Parameters: Protein His-hOGG1 (12-323) was prepared; His (N); host or cells: E. coli
# Conditions: 1 nM OGG1+2 nM APEX+6 nM dsDNA (8-oxo-dG substrate); pH 7.5; RT 40 min; read-out: OGG1/APEX IC50
# Method in brief: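 Coupled glycosylase/AP-endonuclease read-out: 8-oxo-dG-containing dsDNA (6 nM) cleaved by 1 nM His-hOGG1 (12-323) plus 2 nM APEX1 over 40 min at room temperature, after 20 min enzyme–compound preincubation; buffer 20 mM Tris pH 7.5, 100 mM KCl, 0.1% BSA, 0.01% Tween. IC50 comes from sigmoidal 3-parameter fitting of % inhibition derived from TAMRA signal.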
# Sequence of hOGG1 (O15527 12-323): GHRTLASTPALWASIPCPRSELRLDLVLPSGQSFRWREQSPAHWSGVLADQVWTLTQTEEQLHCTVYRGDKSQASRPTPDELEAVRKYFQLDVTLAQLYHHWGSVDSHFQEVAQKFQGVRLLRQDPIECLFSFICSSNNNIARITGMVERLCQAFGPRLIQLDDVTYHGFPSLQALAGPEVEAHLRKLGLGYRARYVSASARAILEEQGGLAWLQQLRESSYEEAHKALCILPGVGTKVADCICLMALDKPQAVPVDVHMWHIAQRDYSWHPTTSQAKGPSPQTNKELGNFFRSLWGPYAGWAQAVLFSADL
row,SMILES,IC50
1,"COc1cc(NC(=O)[C@H]2CC[C@@H](N3Cc4c(C)cccc4C3=O)CC2)ccc1Cl [Example 223, (1s,4s)-N-(4-Chloro-3-methoxyphenyl)-4-(4-methyl-1-oxoisoindolin-2-yl)cyclohexanecarboxamide]",100 to 1000 nM
2,"O=C1c2cccc(Br)c2CN1[C@H]1CC[C@@H](C(=O)Nc2ccc3c(c2)OCO3)CC1 [Example 185, (1s,4s)-N-(Benzo[d][1,3]dioxol-5-yl)-4-(4-bromo-1-oxoisoindolin-2-yl)cyclohexanecarboxamide]",1000 to 10000 nM
3,"COc1cc(NC(=O)[C@H]2CC[C@@H](N3Cc4c(ccc(N5CCC5)c4C)NC3=O)CC2)ccc1C [Example 42, (1s,4s)-4-(6-(Azetidin-1-yl)-5-methyl-2-oxo-1,2-dihydroquinazolin-3(4H)-yl)-N-(3-methoxy-4-methylphenyl)cyclohexanecarboxamide]",100 to 1000 nM
4,"COc1cccc(NC(=O)[C@H]2CC[C@@H](N3Cc4c(C)cccc4C3=O)CC2)c1 [Example 245, (1s,4s)-N-(3-Methoxyphenyl)-4-(4-methyl-1-oxoisoindolin-2-yl)cyclohexanecarboxamide]",1000 to 10000 nM
5,"Cc1cccc2c1CN([C@H]1CC[C@@H](C(=O)Nc3ccc(Cl)c(F)c3)CC1)C(=O)N2 [Example 90, (1s,4s)-N-(4-chloro-3-fluorophenyl)-4-(5-methyl-2-oxo-1,2-dihydroquinazolin-3(4H)-yl)cyclohexanecarboxamide]",100 to 1000 nM
6,"COc1cc(NC(=O)C[C@H]2C[C@H](N3Cc4c(Br)cccc4C3=O)C2)ccc1C [Example 187, 2-((1r,3r)-3-(4-Bromo-1-oxoisoindolin-2-yl)cyclobutyl)-N-(3-methoxy-4-methylphenyl)acetamide]",> 10000 nM
7,"COc1cc(NC(=O)[C@H]2CC[C@@H](N3Cc4c(O)cccc4C3=O)CC2)ccc1C [Example 197, (1s,4s)-4-(4-Hydroxy-1-oxoisoindolin-2-yl)-N-(3-methoxy-4-methylphenyl)cyclohexanecarboxamide]",1000 to 10000 nM
8,"COc1cc(NC(=O)[C@H]2CC[C@@H](N3Cc4c(Br)cc(NC(=O)CN5CCC5)cc4C3=O)CC2)ccc1C [Example 200, (1s,4s)-4-(6-(2-(Azetidin-1-yl)acetamido)-4-bromo-1-oxoisoindolin-2-yl)-N-(3-methoxy-4-methylphenyl)cyclohexanecarboxamide]",100 to 1000 nM
9,"COc1cc(NC(=O)[C@H]2CC[C@@H](N3Cc4c(ccc(Br)c4C)NC3=O)CC2)ccc1C [Example 63, (1s,4s)-4-(6-bromo-5-methyl-2-oxo-1,2-dihydroquinazolin-3(4H)-yl)-N-(3-methoxy-4-methylphenyl)cyclohexanecarboxamide]",1000 to 10000 nM
10,"CNCCOc1cc(C)c2c(c1)C(=O)N([C@H]1CC[C@@H](C(=O)Nc3ccc(C)c(OC)c3)CC1)C2 [Example 266, (1s,4s)-N-(3-Methoxy-4-methylphenyl)-4-(4-methyl-6-(2-(methylamino)ethoxy)-1-oxoisoindolin-2-yl)cyclohexanecarboxamide]",< 100 nM
11,"COc1cc(NC(=O)[C@@H]2[C@@H]3C[C@@H](N4Cc5c(Br)cccc5C4=O)C[C@@H]32)ccc1C (single isomer, unassigned) [Example 269]",1000 to 10000 nM
12,"COc1cc(NC(=O)C2C[C@@H]3[C@H](C2)[C@H]3N2Cc3c(Br)cccc3C2=O)ccc1C (single isomer, unassigned) [Example 247]",> 10000 nM
13,"COc1cc(NC(=O)[C@@H]2[C@@H]3C[C@@H](N4Cc5c(Br)cccc5C4=O)C[C@@H]32)ccc1C [Example 213, (1R,5S,6s)-3-(4-Bromo-1-oxoisoindolin-2-yl)-N-(3-methoxy-4-methylphenyl)bicyclo[3.1.0]hexane-6-carboxamide]",1000 to 10000 nM
14,"CCc1cccc2c1CN([C@H]1CC[C@@H](C(=O)Nc3ccc(C)c(OC)c3)CC1)C(=O)N2 [Example 72, (1s,4s)-4-(5-ethyl-2-oxo-1,2-dihydroquinazolin-3(4H)-yl)-N-(3-methoxy-4-methylphenyl)cyclohexanecarboxamide]",100 to 1000 nM
15,"CCc1ccc(NC(=O)[C@H]2CC[C@@H](N3Cc4c(C)cccc4C3=O)CC2)cc1C#N [Example 128, (1s,4s)-N-(3-Cyano-4-ethylphenyl)-4-(4-methyl-1-oxoisoindolin-2-yl)cyclohexane-1-carboxamide]",100 to 1000 nM
16,"CNCCNc1cc(Br)c2c(c1)C(=O)N([C@H]1CC[C@@H](C(=O)Nc3ccc(C)c(OC)c3)CC1)C2 [Example 175, (1s,4s)-4-(4-Bromo-6-(2-(methylamino)ethylamino)-1-oxoisoindolin-2-yl)-N-(3-methoxy-4-methylphenyl)cyclohexanecarboxamide]",< 100 nM
17,"Cc1cccc2c1CN([C@H]1CC[C@@H](C(=O)Nc3ccc(O)cc3)CC1)C2=O [Example 229, (1s,4s)-N-(4-Hydroxyphenyl)-4-(4-methyl-1-oxoisoindolin-2-yl)cyclohexanecarboxamide]",1000 to 10000 nM

row,SMILES,IC50
1,"COc1cc(NC(=O)[C@H]2CC[C@@H](N3Cc4c(C)cnc(Cl)c4NC3=O)CC2)ccc1C [Example 32, (1s,4s)-4-(8-Chloro-5-methyl-2-oxo-1,2-dihydropyrido[3,4-d]pyrimidin-3(4H)-yl)-N-(3-methoxy-4-methylphenyl)cyclohexanecarboxamide]",< 100 nM
2,"COc1cc(NC(=O)[C@H]2CC[C@@H](N3Cc4c(F)cccc4NC3=O)CC2)ccc1C [Example 75, (1s,4s)-4-(5-fluoro-2-oxo-1,2-dihydroquinazolin-3(4H)-yl)-N-(3-methoxy-4-methylphenyl)cyclohexanecarboxamide]",100 to 1000 nM
3,"COc1cc(NC(=O)[C@H]2CC[C@@H](N3Cc4c(Br)cc(NCCCN(C)C)cc4C3=O)CC2)ccc1C [Example 205, (1s,4s)-4-(4-Bromo-6-(3-(dimethylamino)propylamino)-1-oxoisoindolin-2-yl)-N-(3-methoxy-4-methylphenyl)cyclohexanecarboxamide]",< 100 nM
4,"COc1cc(NC(=O)[C@H]2CC[C@@H](N3Cc4c(C)cc([N+](=O)[O-])cc4C3=O)CC2)ccc1C [Example 167, (1s,4s)-N-(3-Methoxy-4-methylphenyl)-4-(4-methyl-6-nitro-1-oxoisoindolin-2-yl)cyclohexanecarboxamide]",< 100 nM
5,"Cc1cccc2c1CN([C@H]1CC[C@@H](C(=O)Nc3ccc4oncc4c3)CC1)C2=O [Example 275, (1s,4s)-N-(benzo[d]isoxazol-5-yl)-4-(4-methyl-1-oxoisoindolin-2-yl)cyclohexanecarboxamide]",100 to 1000 nM
6,"CNC(=O)c1cc(C)c2c(c1)NC(=O)N([C@H]1CC[C@@H](C(=O)Nc3ccc(C)c(OC)c3)CC1)C2 [Example 80, 3-((1s,4s)-4-(3-methoxy-4-methylphenylcarbamoyl)cyclohexyl)-N,5-dimethyl-2-oxo-1,2,3,4-tetrahydroquinazoline-7-carboxamide]",< 100 nM
7,"COc1ccc(NC(=O)[C@]2(C)CC[C@@H](N3Cc4c(C)cccc4NC3=O)CC2)cc1Cl (single isomer, unassigned) [Example 104, (1r,4r)-N-(3-chloro-4-methoxyphenyl)-1-methyl-4-(5-methyl-2-oxo-1,2-dihydroquinazolin-3(4H)-yl)cyclohexanecarboxamide]",1000 to 10000 nM
8,"Cc1cccc2c1CN([C@H]1CC[C@@H](C(=O)Nc3ccc(Cl)c(F)c3)CC1)C2=O [Example 241, (1s,4s)-N-(4-Chloro-3-fluorophenyl)-4-(4-methyl-1-oxoisoindolin-2-yl)cyclohexanecarboxamide]",100 to 1000 nM
9,"COc1ccc(NC(=O)[C@H]2CC[C@@H](N3Cc4c(C)cccc4C3=O)CC2)c(F)c1 [Example 242, (1s,4s)-N-(2-Fluoro-4-methoxyphenyl)-4-(4-methyl-1-oxoisoindolin-2-yl)cyclohexanecarboxamide]",1000 to 10000 nM
10,"COc1cc(NC(=O)[C@H]2CC[C@@H](N3Cc4c(C)cc(OCc5ncc[nH]5)cc4C3=O)CC2)ccc1C [Example 226, (1s,4s)-4-(6-((1H-Imidazol-2-yl)methoxy)-4-methyl-1-oxoisoindolin-2-yl)-N-(3-methoxy-4-methylphenyl)cyclohexanecarboxamide]",100 to 1000 nM
11,"O=C1c2cccc(Br)c2CN1[C@H]1CC[C@@H](C(=O)Nc2ccc3c(c2)OCCO3)CC1 [Example 191, (1s,4s)-4-(4-Bromo-1-oxoisoindolin-2-yl)-N-(2,3-dihydrobenzo[b][1,4]dioxin-6-yl)cyclohexanecarboxamide]",1000 to 10000 nM
12,"Cc1cccc2c1CN([C@H]1CC[C@@H](C(=O)Nc3ccc(Cl)c(Cl)c3)CC1)C2=O [Example 237, (1s,4s)-N-(3,4-Dichlorophenyl)-4-(4-methyl-1-oxoisoindolin-2-yl)cyclohexanecarboxamide]",100 to 1000 nM
13,"COc1cc(NC(=O)[C@H]2CC[C@@H](N3Cc4c(C)cc(NCC5(F)CNC5)cc4C3=O)CC2)ccc1C [Example 140, (1s,4s)-4-(6-(((3-Fluoroazetidin-3-yl)methyl)amino)-4-methyl-1-oxoisoindolin-2-yl)-N-(3-methoxy-4-methylphenyl)cyclohexanecarboxamide]",< 100 nM
14,"COc1cc(NC(=O)[C@H]2CC[C@@H](n3oc4c(Br)cccc4c3=O)CC2)ccc1C [Example 184, (1s,4s)-4-(7-Bromo-3-oxobenzo[d]isoxazol-2(3H)-yl)-N-(3-methoxy-4-methylphenyl)cyclohexanecarboxamide]",> 10000 nM
15,"COc1cc(NC(=O)[C@H]2CC[C@@H](N3Cc4c(C)cc(C=O)cc4NC3=O)CC2)ccc1C [Example 78, (1s,4s)-4-(7-formyl-5-methyl-2-oxo-1,2-dihydroquinazolin-3(4H)-yl)-N-(3-methoxy-4-methylphenyl)cyclohexanecarboxamide]",< 100 nM
16,"COc1cc(NC(=O)[C@H]2CC[C@@H](N3Cc4c(C)cccc4C3=O)CC2)ccc1C [Example 153, (1s,4s)-N-(3-Methoxy-4-methylphenyl)-4-(4-methyl-1-oxoisoindolin-2-yl)cyclohexanecarboxamide]",100 to 1000 nM
